# Assay results: ChEMBL document CHEMBL4431369, “Synthesis and hypoglycemic activity of 9-O-(lipophilic group substituted) berberine derivatives” (Bioorg Med Chem Lett, 2016)
# Columns and labels:
# [1] = tested on: HepG2; experiment: Cytotoxicity against human HepG2 cells assessed as reduction in cell viability after 48 hrs by MTT assay; format: cell-based; settings: for IC50: Homo sapiens, HepG2, 48 h; for Activity: human, hepg2, 48 h
# [2] = tested on: HepG2; experiment: Hypoglycemic activity in human HepG2 cells assessed as increase in glucose consumption at 5 ug/ml after 48 hrs relative to BBR; format: functional
# [3] = tested on: HepG2; experiment: Hypoglycemic activity in human HepG2 cells assessed as increase in glucose consumption after 48 hrs; format: functional, cell-based
# [4] = tested on: HepG2; experiment: Hypoglycemic activity in human HepG2 cells assessed as increase in glucose consumption at 5 ug/ml after 48 hrs relative to control; format: functional
# [5] = Ratio of compound IC50 to BBR IC50 for cytotoxicity against human HepG2 cells; format: cell-based; settings: read-out: Ratio IC50
# [6] = tested on: HepG2; experiment: Cytotoxicity against human HepG2 cells assessed as reduction in cell viability at 125 ug/ml after 48 hrs by MTT assay; format: cell-based; settings: hepg2, 48 h
SMILES,IC50 [1],Activity [1],Activity [2],Activity [3],Activity [4],selectivity ratio [5],Activity [6]
COc1ccc2cc3[n+](cc2c1OC(=O)c1ccc(OC(C)=O)cc1)CCc1cc2c(cc1-3)OCO2.[Cl-],42.9 µg/mL,Dose-dependent effect,-9.6%,Dose-dependent effect,31.7%,–,–
COc1ccc2cc3[n+](cc2c1OC(=O)c1ccccn1)CCc1cc2c(cc1-3)OCO2.[Cl-],41.6 µg/mL,Dose-dependent effect,4.2%,Dose-dependent effect,51.7%,–,–
COc1cc(/C=C/C(=O)Oc2c(OC)ccc3cc4[n+](cc23)CCc2cc3c(cc2-4)OCO3)ccc1OC(=O)c1cccnc1.[Cl-],91.5 µg/mL,Dose-dependent effect,-16.3%,Dose-dependent effect,21.8%,1.95,Non-Toxic
COc1cc(/C=C/C(=O)Oc2c(OC)ccc3cc4[n+](cc23)CCc2cc3c(cc2-4)OCO3)ccc1OC(C)=O.[Cl-],73.5 µg/mL,Dose-dependent effect,27.4%,Dose-dependent effect,85.5%,1.57,–
COc1ccc2cc3[n+](cc2c1OC(=O)c1ccc([N+](=O)[O-])cc1)CCc1cc2c(cc1-3)OCO2.[Cl-],37.9 µg/mL,Dose-dependent effect,-15.9%,Dose-dependent effect,22.4%,–,–
COc1ccc2cc3[n+](cc2c1OC)CCc1cc2c(cc1-3)OCO2 [BERBERINE],46.9 µg/mL,Dose-dependent effect,–,–,45.6%,–,Toxic
COc1ccc2cc3[n+](cc2c1OC(=O)/C=C/c1ccccc1)CCc1cc2c(cc1-3)OCO2.[Cl-],52.3 µg/mL,Dose-dependent effect,33.6%,Dose-dependent effect,94.5%,–,–
COc1ccc2cc3[n+](cc2c1OC(=O)c1cccc([N+](=O)[O-])c1)CCc1cc2c(cc1-3)OCO2.[Cl-],27.9 µg/mL,Dose-dependent effect,-12.1%,Dose-dependent effect,28%,–,–
COc1ccc2cc3[n+](cc2c1OC(=O)c1ccncc1)CCc1cc2c(cc1-3)OCO2.[Cl-],82.5 µg/mL,Dose-dependent effect,-10.6%,Dose-dependent effect,30.2%,–,–
COc1ccc2cc3[n+](cc2c1OC(=O)c1cccnc1)CCc1cc2c(cc1-3)OCO2.[Cl-],72.1 µg/mL,Dose-dependent effect,0%,Dose-dependent effect,45.7%,–,–
COc1ccc2cc3[n+](cc2c1OC(=O)c1ccccc1)CCc1cc2c(cc1-3)OCO2.[Cl-],65.9 µg/mL,Dose-dependent effect,-3.9%,Dose-dependent effect,40%,–,–
COc1ccc2cc3[n+](cc2c1OC(=O)c1ccccc1[N+](=O)[O-])CCc1cc2c(cc1-3)OCO2.[Cl-],46.9 µg/mL,Dose-dependent effect,-8.1%,Dose-dependent effect,33.8%,–,–
CN(C)C(=N)NC(=N)N [METFORMIN],–,–,-17.6%,–,20%,–,–
